In patent publication US20200048259A1, “KDM5 INHIBITORS” (priority 2016, published 2020):

Each compound was assayed against T1, Full-length KDM5B enzyme (Homo sapiens, UniProt Q9UGL1) (assay: KDM5B TR-FRET Enzyme Activity Assay (LANCE)). Details: not given.
T1 construct: recombinant protein from baculovirus-transfected Sf21 cells: full-length KDM5B; MW=176.825 kDa; host or cells: baculovirus-transfected Sf21 insect cells
T1 sequence (Q9UGL1 whole entry): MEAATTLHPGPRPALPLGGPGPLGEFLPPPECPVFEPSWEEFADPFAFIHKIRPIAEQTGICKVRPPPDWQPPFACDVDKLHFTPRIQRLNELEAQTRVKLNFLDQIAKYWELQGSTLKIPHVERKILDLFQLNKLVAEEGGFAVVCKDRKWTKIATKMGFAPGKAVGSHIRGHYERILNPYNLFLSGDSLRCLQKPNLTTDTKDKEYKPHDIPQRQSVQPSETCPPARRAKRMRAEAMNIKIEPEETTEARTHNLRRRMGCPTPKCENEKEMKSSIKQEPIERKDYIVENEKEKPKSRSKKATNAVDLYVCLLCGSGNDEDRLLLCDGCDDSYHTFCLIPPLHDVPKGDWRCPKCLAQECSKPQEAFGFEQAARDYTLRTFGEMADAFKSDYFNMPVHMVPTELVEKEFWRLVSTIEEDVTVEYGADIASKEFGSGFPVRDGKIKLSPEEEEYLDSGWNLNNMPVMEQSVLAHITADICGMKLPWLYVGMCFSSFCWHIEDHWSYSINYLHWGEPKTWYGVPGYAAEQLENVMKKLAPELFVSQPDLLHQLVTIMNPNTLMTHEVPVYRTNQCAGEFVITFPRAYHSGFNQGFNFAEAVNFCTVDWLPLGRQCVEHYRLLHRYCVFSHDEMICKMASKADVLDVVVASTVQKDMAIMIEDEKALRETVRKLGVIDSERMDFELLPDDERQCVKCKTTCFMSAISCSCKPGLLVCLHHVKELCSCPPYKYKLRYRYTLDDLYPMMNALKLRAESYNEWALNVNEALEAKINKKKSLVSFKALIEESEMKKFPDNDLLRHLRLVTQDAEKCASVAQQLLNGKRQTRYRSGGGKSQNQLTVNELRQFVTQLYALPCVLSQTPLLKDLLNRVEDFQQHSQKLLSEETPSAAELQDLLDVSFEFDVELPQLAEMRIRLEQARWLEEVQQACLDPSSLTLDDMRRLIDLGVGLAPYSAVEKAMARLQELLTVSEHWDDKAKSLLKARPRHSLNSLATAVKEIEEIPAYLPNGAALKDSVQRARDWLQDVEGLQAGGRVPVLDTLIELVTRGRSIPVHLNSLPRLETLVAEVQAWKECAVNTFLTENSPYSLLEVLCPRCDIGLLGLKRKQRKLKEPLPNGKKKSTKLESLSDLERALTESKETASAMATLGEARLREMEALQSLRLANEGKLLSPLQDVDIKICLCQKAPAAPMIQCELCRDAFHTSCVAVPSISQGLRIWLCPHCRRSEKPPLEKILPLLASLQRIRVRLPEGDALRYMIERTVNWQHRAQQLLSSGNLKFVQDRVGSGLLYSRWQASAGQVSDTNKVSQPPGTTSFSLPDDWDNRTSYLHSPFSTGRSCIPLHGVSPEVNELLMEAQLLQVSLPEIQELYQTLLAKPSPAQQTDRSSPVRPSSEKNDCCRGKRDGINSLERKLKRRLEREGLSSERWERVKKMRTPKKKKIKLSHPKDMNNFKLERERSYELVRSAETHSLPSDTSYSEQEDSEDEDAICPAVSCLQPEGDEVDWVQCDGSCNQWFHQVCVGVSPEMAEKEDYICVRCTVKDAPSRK
Assay type: biochemical
Description: KDM5B TR-FRET Enzyme Activity Assay
KDM5B enzymatic activity was determined with the LANCE (Lanthanide Chelate Excite) TR-FRET (Time-resolved fluorescence resonance energy transfer) assay. […] Following a 30 minutes compound and enzyme incubation in a humidified chamber, each reaction was initiated by the addition of 1 μL 1× assay buffer containing […] biotinylated H3K4Me3 peptide, and 500 nM α-ketoglutarate. The final reaction in each well of 5 μL consists of 5 nM KDM5B, 500 nM biotinylated-peptide, and 500 nM α-ketoglutarate. De-methylation reactions were allowed to proceed for 60 minutes. Reactions were immediately quenched by the addition of 5 μL of 2× Lance Detection Buffer (PerkinElmer) with 0.5 mM EDTA and 2 nM of Eu-anti-H3K4Mel-2 antibody, and 30 nM of Streptavidin-conjugated Dylight 650 detection reagents. After 60 minutes incubation with detection reagents, reaction plates were read on a PerkinElmer EnVision plate reader using standard TR-FRET protocol. Briefly, excitation of donor molecules (Eu-chelate-anti-H3K4Me1-2-antibody) with a laser light source at 337 nm produces energy that can be transferred to Dylight-650 acceptor molecules if this donor:acceptor pair is within close proximity.
Fluorescence intensity at both 665 nm (acceptor) and 615 nm (donor) are measured and a TR-FRET ratio calculated for each well (acceptor intensity/donor intensity). IC50 values were determined by 4 parameter robust fit of TR-FRET ratio values vs. (Log 10) compound concentrations.
Compound `Cc1nc2[nH]c(C)c(Cc3ccccc3)c(=O)n2n1` [Example 7-4, 6-benzyl-2,5-dimethyl[1,2,4]triazolo[1,5-a]pyrimidin-7(4H)-one] has an IC50 of over 100 µM.
Work on `Cc1nc2[nH]c(C(C)C)cc(=O)n2n1` [Example 7-6, 2-methyl-5-(1-methylethyl)[1,2,4]triazolo[1,5-a]pyrimidin-7(4H)-one] yielded an IC50 of over 100 µM.
`CCCCc1c(C)[nH]c2nc(C)nn2c1=O` [Example 7-8, 6-butyl-2,5-dimethyl[1,2,4]triazolo[1,5-a]pyrimidin-7(4H)-one] showed an IC50 of over 100 µM.
`Cc1[nH]c2nc(C3CC(F)(F)C3)nn2c(=O)c1C(C)C` [Example 7-23, 2-(3,3-difluorocyclobutyl)-5-methyl-6-(1-methylethyl)[1,2,4]triazolo[1,5-a]pyrimidin-7(4H)-one] gave an IC50 of over 100 µM.
`Cc1[nH]c2nc(-c3ccco3)nn2c(=O)c1C(C)C` [Example 7-27, 2-furan-2-yl-5-methyl-6-(1-methylethyl)[1,2,4]triazolo[1,5-a]pyrimidin-7(4H)-one] showed an IC50 of over 100 µM.
With `Cc1[nH]c2nc(-c3ccccn3)nn2c(=O)c1C(C)C` [Example 7-28, 5-methyl-6-(1-methylethyl)-2-pyridin-2-yl[1,2,4]triazolo[1,5-a]pyrimidin-7(4H)-one] the IC50 was over 100 µM.
With `Cc1[nH]c2nc(C(C)C)nn2c(=O)c1C(C)C` [Example 7-29, 5-methyl-2,6-bis(1-methylethyl)[1,2,4]triazolo[1,5-a]pyrimidin-7(4H)-one] the IC50 was 35.4 µM.
`Cc1[nH]c2nc(N3CCOCC3)nn2c(=O)c1C(C)C` [Example 7-30, 5-methyl-6-(1-methylethyl)-2-morpholin-4-yl[1,2,4]triazolo[1,5-a]pyrimidin-7(4H)-one] showed an IC50 of over 100 µM.
`Cc1nc2[nH]c(C(C)(C)C)cc(=O)n2n1` [Example 7-38, 5-tert-butyl-2-methyl[1,2,4]triazolo[1,5-a]pyrimidin-7(4H)-one] was tested, and the IC50 was over 100 µM.
For `Cc1nc2[nH]c(C(F)(F)C(F)(F)F)cc(=O)n2n1` [Example 7-41, 2-methyl-5-(pentafluoroethyl)[1,2,4]triazolo[1,5-a]pyrimidin-7(4H)-one], the IC50 was over 100 µM.
`Cc1nc2[nH]c(C)c(C3CCCC3)c(=O)n2n1` [Example 7-45, 6-cyclopentyl-2,5-dimethyl[1,2,4]triazolo[1,5-a]pyrimidin-7(4H)-one] gave an IC50 of over 100 µM.
`Cc1nc2[nH]c(C3CC3)cc(=O)n2n1` [Example 7-46, 5-cyclopropyl-2-methyl[1,2,4]triazolo[1,5-a]pyrimidin-7(4H)-one] was tested, and the IC50 was over 100 µM.

Same assay, conditions: 5 nM full-length KDM5B, biotinylated H3K4Me3 peptide, 500 nM α-ketoglutarate; ten point titration 100000 nM to 5.08 nM; read-out: IC50
`CCCc1cc(=O)n2nc(C)nc2[nH]1` [Example 7-2, 2-methyl-5-propyl[1,2,4]triazolo[1,5-a]pyrimidin-7(4H)-one] gave an IC50 of 97 µM.
For `CCc1c(C)[nH]c2nc(N)nn2c1=O` [Example 7-3, 2-amino-6-ethyl-5-methyl-[1,2,4]triazolo[1,5-a]pyrimidin-7(4H)-one], the IC50 was 22.2 µM.
Work on `CCc1c(C)[nH]c2nc(C)nn2c1=O` [Example 7-5, 6-ethyl-2,5-dimethyl-[1,2,4]triazolo[1,5-a]pyrimidin-7(4H)-one] yielded an IC50 of 27.8 µM.
Compound `Cc1nc2[nH]c(C)c(C)c(=O)n2n1` [Example 7-7, 2,5,6-trimethyl[1,2,4]triazolo[1,5-a]pyrimidin-7(4H)-one] has an IC50 of 32 µM.
With `CCc1c(C)[nH]c2nc(C(F)(F)F)nn2c1=O` [Example 7-9, 6-ethyl-5-methyl-2-(trifluoromethyl)[1,2,4]triazolo[1,5-a]pyrimidin-7(4H)-one] the IC50 was 9.09 µM.
With `Cc1cc(=O)n2nc(-c3ccncc3)nc2[nH]1` [Example 7-10, 5-methyl-2-(pyridin-4-yl)-[1,2,4]triazolo[1,5-a]pyrimidin-7(4H)-one] the IC50 was 4.28 µM.
`Cc1nc2[nH]c(C(F)(F)F)cc(=O)n2n1` [Example 7-11, 2-methyl-5-(trifluoromethyl)-[1,2,4]triazolo[1,5-a]pyrimidin-7(4H)-one] was tested, and the IC50 was 27.9 µM.
`CCc1cc(=O)n2nc(C)nc2[nH]1` [Example 7-12, 5-ethyl-2-methyl-[1,2,4]triazolo[1,5-a]pyrimidin-7(4H)-one] was tested, and the IC50 was 73.7 µM.
In the case of `CCOC(=O)c1[nH]c2nc(C)nn2c(=O)c1Cl` [Example 7-13, ethyl 6-chloro-2-methyl-7-oxo-4,7-dihydro[1,2,4]triazolo[1,5-a]pyrimidine-5-carboxylate], the IC50 is reported as 2.96 µM.
`CCc1c(C)[nH]c2nc(C(=O)OC)nn2c1=O` [Example 7-14, methyl 6-ethyl-5-methyl-7-oxo-4,7-dihydro[1,2,4]triazolo[1,5-a]pyrimidine-2-carboxylate] was tested, and the IC50 was 34.9 µM.
With `COC(=O)Cc1c(C)[nH]c2nc(C(=O)OC)nn2c1=O` [Example 7-15, methyl 6-(2-methoxy-2-oxoethyl)-5-methyl-7-oxo-4,7-dihydro[1,2,4]triazolo[1,5-a]pyrimidine-2-carboxylate] the IC50 was 68.1 µM.
`Cc1[nH]c2nc(N)nn2c(=O)c1C(C)C` [Example 7-16, 2-amino-5-methyl-6-(1-methylethyl)[1,2,4]triazolo[1,5-a]pyrimidin-7(4H)-one] gave an IC50 of 3.41 µM.
For `Cc1[nH]c2nc(C3CC3)nn2c(=O)c1C(C)C` [Example 7-18, 2-cyclopropyl-5-methyl-6-(1-methylethyl)[1,2,4]triazolo[1,5-a]pyrimidin-7(4H)-one], the IC50 was 48.6 µM.
Work on `Cc1[nH]c2nc(C3CCC3)nn2c(=O)c1C(C)C` [Example 7-19, 2-cyclobutyl-5-methyl-6-(1-methylethyl)[1,2,4]triazolo[1,5-a]pyrimidin-7(4H)-one] yielded an IC50 of 92.7 µM.
Work on `CCc1c(-c2ccccc2)[nH]c2nc(C)nn2c1=O` [Example 7-20, 6-ethyl-2-methyl-5-phenyl[1,2,4]triazolo[1,5-a]pyrimidin-7(4H)-one] yielded an IC50 of 3.97 µM.
With `Cc1nc2[nH]c(C)c(C(C)C)c(=O)n2n1` [Example 7-21, 2,5-dimethyl-6-(1-methylethyl)[1,2,4]triazolo[1,5-a]pyrimidin-7(4H)-one] the IC50 was 7.99 µM.
`Cc1[nH]c2nc(-c3ccc(F)cc3)nn2c(=O)c1C(C)C` [Example 7-24, 2-(4-fluorophenyl)-5-methyl-6-(1-methylethyl)[1,2,4]triazolo[1,5-a]pyrimidin-7(4H)-one] gave an IC50 of 33.7 µM.
Compound `Cc1[nH]c2nc(-c3ccc(C(F)(F)F)cc3)nn2c(=O)c1C(C)C` [Example 7-25, 5-methyl-6-(1-methylethyl)-2-[4-(trifluoromethyl)phenyl][1,2,4]triazolo[1,5-a]pyrimidin-7(4H)-one] has an IC50 of 67.6 µM.
In the case of `Cc1[nH]c2nc(-c3ccccc3Cl)nn2c(=O)c1C(C)C` [Example 7-26, 2-(2-chlorophenyl)-5-methyl-6-(1-methylethyl)[1,2,4]triazolo[1,5-a]pyrimidin-7(4H)-one], the IC50 is reported as 95.8 µM.
For `Cc1nc2[nH]c(C)c(Cl)c(=O)n2n1` [Example 7-31, 6-chloro-2,5-dimethyl[1,2,4]triazolo[1,5-a]pyrimidin-7(4H)-one], the IC50 was 39.2 µM.
For `Cc1[nH]c2nc(C(F)(F)F)nn2c(=O)c1C(C)C` [Example 7-32, 5-methyl-6-(1-methylethyl)-2-(trifluoromethyl)[1,2,4]triazolo[1,5-a]pyrimidin-7(4H)-one], the IC50 was 2.07 µM.
`CCc1c(-c2ccn(C)n2)[nH]c2nc(C)nn2c1=O` [Example 7-33, 6-ethyl-2-methyl-5-(1-methyl-1H-pyrazol-3-yl)[1,2,4]triazolo[1,5-a]pyrimidin-7(4H)-one] was tested, and the IC50 was 4.24 µM.
With `Cc1[nH]c2nc(Cl)nn2c(=O)c1C(C)C` [Example 7-34, 2-chloro-5-methyl-6-(1-methylethyl)[1,2,4]triazolo[1,5-a]pyrimidin-7(4H)-one] the IC50 was 1.25 µM.
`Cc1[nH]c2nc(Br)nn2c(=O)c1C(C)C` [Example 7-35, 2-bromo-5-methyl-6-(1-methylethyl)[1,2,4]triazolo[1,5-a]pyrimidin-7(4H)-one] showed an IC50 of 1.92 µM.
With `Cc1nc2[nH]c(-c3ccn(C)n3)cc(=O)n2n1` [Example 7-36, 2-methyl-5-(1-methyl-1H-pyrazol-3-yl)[1,2,4]triazolo[1,5-a]pyrimidin-7(4H)-one] the IC50 was 25.4 µM.
With `Cc1[nH]c2nc(CCCO)nn2c(=O)c1C(C)C` [Example 7-37, 2-(3-hydroxypropyl)-5-methyl-6-(1-methylethyl)[1,2,4]triazolo[1,5-a]pyrimidin-7(4H)-one] the IC50 was 66.5 µM.
Work on `Cc1nc2[nH]c(-c3ccc(F)cc3)cc(=O)n2n1` [Example 7-39, 5-(4-fluorophenyl)-2-methyl[1,2,4]triazolo[1,5-a]pyrimidin-7(4H)-one] yielded an IC50 of 8.07 µM.
`Cc1nc2[nH]c(-c3ccoc3)cc(=O)n2n1` [Example 7-40, 5-furan-3-yl-2-methyl[1,2,4]triazolo[1,5-a]pyrimidin-7(4H)-one] gave an IC50 of 36.7 µM.
With `COc1c(C(F)(F)F)[nH]c2nc(C)nn2c1=O` [Example 7-42, 6-methoxy-2-methyl-5-(trifluoromethyl)[1,2,4]triazolo[1,5-a]pyrimidin-7(4H)-one] the IC50 was 21.1 µM.
`Cc1nc2[nH]c(-c3ccccn3)cc(=O)n2n1` [Example 7-43, 2-methyl-5-pyridin-2-yl[1,2,4]triazolo[1,5-a]pyrimidin-7(4H)-one] gave an IC50 of 23.2 µM.
`Cc1nc2[nH]c(-c3ccco3)cc(=O)n2n1` [Example 7-44, 5-furan-2-yl-2-methyl[1,2,4]triazolo[1,5-a]pyrimidin-7(4H)-one] showed an IC50 of 33.8 µM.
